Results as given in patent US8048927B2 (Besins Healthcare Luxembourg, priority 2004, dated 2011).

Legend:
estrogen receptors = conditions: in vitro; cited from earlier work
estrone sulphatase = target: T1, estrone sulphatase (Homo sapiens, UniProt P08842); conditions: mammary cancer cell lines; cited from earlier work
T1 construct: estrone sulphatase activity in mammary cancer cell lines; endogenous in cells
T1 sequence (P08842 22-583): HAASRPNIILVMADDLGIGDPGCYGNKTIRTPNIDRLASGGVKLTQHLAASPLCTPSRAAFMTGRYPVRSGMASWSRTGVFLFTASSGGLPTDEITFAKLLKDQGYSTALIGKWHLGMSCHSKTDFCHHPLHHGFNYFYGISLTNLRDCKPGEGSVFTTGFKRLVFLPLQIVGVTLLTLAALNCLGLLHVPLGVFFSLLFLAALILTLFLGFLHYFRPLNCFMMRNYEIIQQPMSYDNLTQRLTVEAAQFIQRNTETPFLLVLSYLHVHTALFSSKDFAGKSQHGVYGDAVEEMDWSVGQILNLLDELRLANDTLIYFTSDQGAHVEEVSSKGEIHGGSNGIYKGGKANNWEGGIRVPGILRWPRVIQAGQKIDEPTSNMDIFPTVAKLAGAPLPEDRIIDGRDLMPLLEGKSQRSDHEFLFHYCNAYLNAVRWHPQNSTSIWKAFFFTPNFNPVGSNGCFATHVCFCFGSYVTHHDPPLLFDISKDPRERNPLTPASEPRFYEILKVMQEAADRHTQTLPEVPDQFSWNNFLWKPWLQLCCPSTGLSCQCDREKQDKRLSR

[1] = tolerance of 4-hydroxy tamoxifen gel in healthy premenopausal women (Example 3)
Procedure: Each participant applied the gel daily for the duration of two menstrual cycles.
On the first day of the following menstruation, treatment, which consisted of daily application of the gel over two menstrual cycles, began. Blood samples were collected 24 hours following the morning application of gel on days 7, 20 and 25 of the first and second cycles. On the last day of administration, day 25 of the second menstrual cycle, serial blood samples were collected prior to application and at 0.5, 1, 1.5, 2, 3, 4, 6, 12, 18, 24, 36, 48, and 72 hours after application of the gel.

rat liver = conditions: in vivo; cited from earlier work
[2] = pharmacokinetics of 4-hydroxy tamoxifen gel in healthy premenopausal women (Example 3); assay type: in vivo, human; conditions: gel 20 mg/100 g; for Plasma concentration of 4-hydroxy tamoxifen, Range: First cycle Day 1, 0 hr; for AUC0-24, Mean ± SD / Cav = AUC0-24/24, Mean ± SD / Cmax, Mean ± SD / tmax, Mean ± SD: last administration, day 25 of second cycle
Procedure: At the end of a menstrual cycle, each patient received a single dose, after which serial blood samples were collected at 0, 0.5, 1, 1.5, 2, 3, 4, 6, 12, 18, 24, 36, 48, and 72 hours.

CCC(=C(c1ccc(O)cc1)c1ccc(OCCN(C)C)cc1)c1ccccc1 [4-hydroxy tamoxifen, 1-[4-(2-N-dimethylaminoethoxy)phenyl]-1-(4-hydroxyphenyl)-2-phenylbut-1-ene]
potency versus tamoxifen, as measured by binding affinity to estrogen receptors (estrogen receptors): more potency than tamoxifen
inhibitory effect on estrone sulphatase activity (estrone sulphatase): significant inhibitory effect
patients who developed an allergic reaction to the gel ([1]; 36 patients): One
patients who reported facial acne ([1]; 36 patients, 5 had a past history of acne): 10
biological tolerance ([1]; all 36 patients, daily gel over two menstrual cycles): excellent
effect on FSH, LH, estradiol, or progesterone hormone levels ([1]; during the menstrual cycles): did not affect
echographic examination of the ovaries ([1]; end of treatment, all patients): normal in all patients
laboratory or clinical evidence of systemic effects ([1]; topical application): no detectable laboratory or clinical evidence of systemic effects
rat liver carcinogenicity (rat liver): not
Plasma concentration of 4-hydroxy tamoxifen, Range ([2]; 0.5 mg/day): (0-17.2) pg/mL
Plasma concentration of 4-hydroxy tamoxifen, Mean ± SD ([2]; 0.5 mg/day, First cycle Day 7, 24 hr after application): 0.0064 ± 0.0056 ng/mL
Plasma concentration of 4-hydroxy tamoxifen, Mean ± SD ([2]; 0.5 mg/day, First cycle Day 20, 24 hr after application): 0.0136 ± 0.0079 ng/mL
Plasma concentration of 4-hydroxy tamoxifen, Mean ± SD ([2]; 0.5 mg/day, First cycle Day 25, 24 hr after application): 0.0239 ± 0.0234 ng/mL
Plasma concentration of 4-hydroxy tamoxifen, Mean ± SD ([2]; 0.5 mg/day, Second cycle Day 7, 24 hr after application): 0.0252 ± 0.0161 ng/mL
Plasma concentration of 4-hydroxy tamoxifen, Mean ± SD ([2]; 0.5 mg/day, Second cycle Day 20, 24 hr after application): 0.0157 ± 0.014 ng/mL
Plasma concentration of 4-hydroxy tamoxifen, Mean ± SD ([2]; 0.5 mg/day, Second cycle Day 25, 0 hr (24 hours after Day 24 application, prior to final application)): 0.0108 ± 0.0099 ng/mL
Plasma concentration of 4-hydroxy tamoxifen, Mean ± SD ([2]; 0.5 mg/day, Second cycle Day 25, 0.5 hr after application): 0.0109 ± 0.0074 ng/mL
Plasma concentration of 4-hydroxy tamoxifen, Mean ± SD ([2]; 0.5 mg/day, Second cycle Day 25, 1 hr after application): 0.0104 ± 0.0078 ng/mL
Plasma concentration of 4-hydroxy tamoxifen, Mean ± SD ([2]; 0.5 mg/day, Second cycle Day 25, 1.5 hr after application): 0.009 ± 0.0082 ng/mL
Plasma concentration of 4-hydroxy tamoxifen, Mean ± SD ([2]; 0.5 mg/day, Second cycle Day 25, 2 hr after application): 0.0118 ± 0.0095 ng/mL
Plasma concentration of 4-hydroxy tamoxifen, Mean ± SD ([2]; 0.5 mg/day, Second cycle Day 25, 3 hr after application): 0.01 ± 0.0079 ng/mL
Plasma concentration of 4-hydroxy tamoxifen, Mean ± SD ([2]; 0.5 mg/day, Second cycle Day 25, 4 hr after application): 0.0092 ± 0.0083 ng/mL
Plasma concentration of 4-hydroxy tamoxifen, Mean ± SD ([2]; 0.5 mg/day, Second cycle Day 25, 6 hr after application): 0.0114 ± 0.0085 ng/mL
Plasma concentration of 4-hydroxy tamoxifen, Mean ± SD ([2]; 0.5 mg/day, Second cycle Day 25, 12 hr after application): 0.011 ± 0.0097 ng/mL
Plasma concentration of 4-hydroxy tamoxifen, Mean ± SD ([2]; 0.5 mg/day, Second cycle Day 25, 18 hr after application): 0.0097 ± 0.0088 ng/mL
Plasma concentration of 4-hydroxy tamoxifen, Mean ± SD ([2]; 0.5 mg/day, Second cycle Day 26, 24 hr after last application): 0.0124 ± 0.0094 ng/mL
Plasma concentration of 4-hydroxy tamoxifen, Mean ± SD ([2]; 0.5 mg/day, Second cycle Day 26, 36 hr after last application): 0.0109 ± 0.0069 ng/mL
Plasma concentration of 4-hydroxy tamoxifen, Mean ± SD ([2]; 0.5 mg/day, Second cycle Day 27, 48 hr after last application): 0.0121 ± 0.0065 ng/mL
Plasma concentration of 4-hydroxy tamoxifen, Mean ± SD ([2]; 0.5 mg/day, Second cycle Day 28, 72 hr after last application): 0.0099 ± 0.0071 ng/mL
Plasma concentration of 4-hydroxy tamoxifen ([2]; 0.5 mg/day, after the second cycle, +8 days, LOQ <5 pg/mL): <LOQ
Plasma concentration of 4-hydroxy tamoxifen, maximum ([2]; 0.5 mg/day, after the second cycle, +12 days): (maximum 9.09) pg/mL
Plasma concentration of 4-hydroxy tamoxifen ([2]; 0.5 mg/day, after the second cycle, +20 days): 0 ng/mL
AUC0-24, Mean ± SD ([2]; 0.5 mg/day): 0.2563 ± 0.2053 ng·h/mL
Cav = AUC0-24/24, Mean ± SD ([2]; 0.5 mg/day): 0.0107 ± 0.0085 ng/mL
Cmax, Mean ± SD ([2]; 0.5 mg/day): 0.017 ± 0.0085 ng/mL
tmax, Mean ± SD ([2]; 0.5 mg/day): 40 ± 81 h
Plasma concentration of 4-hydroxy tamoxifen, Range ([2]; 1 mg/day): (0-13.9) pg/mL
Plasma concentration of 4-hydroxy tamoxifen, Mean ± SD ([2]; 1 mg/day, First cycle Day 7, 24 hr after application): 0.0152 ± 0.0097 ng/mL
Plasma concentration of 4-hydroxy tamoxifen, Mean ± SD ([2]; 1 mg/day, First cycle Day 20, 24 hr after application): 0.0173 ± 0.0095 ng/mL
Plasma concentration of 4-hydroxy tamoxifen, Mean ± SD ([2]; 1 mg/day, First cycle Day 25, 24 hr after application): 0.0155 ± 0.0066 ng/mL
Plasma concentration of 4-hydroxy tamoxifen, Mean ± SD ([2]; 1 mg/day, Second cycle Day 7, 24 hr after application): 0.0174 ± 0.0112 ng/mL
Plasma concentration of 4-hydroxy tamoxifen, Mean ± SD ([2]; 1 mg/day, Second cycle Day 20, 24 hr after application): 0.0148 ± 0.0065 ng/mL
Plasma concentration of 4-hydroxy tamoxifen, Mean ± SD ([2]; 1 mg/day, Second cycle Day 25, 0 hr (24 hours after Day 24 application, prior to final application)): 0.0157 ± 0.0171 ng/mL
Plasma concentration of 4-hydroxy tamoxifen, Mean ± SD ([2]; 1 mg/day, Second cycle Day 25, 0.5 hr after application): 0.0135 ± 0.0091 ng/mL
Plasma concentration of 4-hydroxy tamoxifen, Mean ± SD ([2]; 1 mg/day, Second cycle Day 25, 1 hr after application): 0.0108 ± 0.0066 ng/mL
Plasma concentration of 4-hydroxy tamoxifen, Mean ± SD ([2]; 1 mg/day, Second cycle Day 25, 1.5 hr after application): 0.0118 ± 0.008 ng/mL
Plasma concentration of 4-hydroxy tamoxifen, Mean ± SD ([2]; 1 mg/day, Second cycle Day 25, 2 hr after application): 0.0107 ± 0.0069 ng/mL
Plasma concentration of 4-hydroxy tamoxifen, Mean ± SD ([2]; 1 mg/day, Second cycle Day 25, 3 hr after application): 0.0114 ± 0.0079 ng/mL
Plasma concentration of 4-hydroxy tamoxifen, Mean ± SD ([2]; 1 mg/day, Second cycle Day 25, 4 hr after application): 0.0112 ± 0.0073 ng/mL
Plasma concentration of 4-hydroxy tamoxifen, Mean ± SD ([2]; 1 mg/day, Second cycle Day 25, 6 hr after application): 0.0107 ± 0.0064 ng/mL
Plasma concentration of 4-hydroxy tamoxifen, Mean ± SD ([2]; 1 mg/day, Second cycle Day 25, 12 hr after application): 0.0118 ± 0.0078 ng/mL
Plasma concentration of 4-hydroxy tamoxifen, Mean ± SD ([2]; 1 mg/day, Second cycle Day 25, 18 hr after application): 0.0122 ± 0.0083 ng/mL
Plasma concentration of 4-hydroxy tamoxifen, Mean ± SD ([2]; 1 mg/day, Second cycle Day 26, 24 hr after last application): 0.0186 ± 0.0142 ng/mL
Plasma concentration of 4-hydroxy tamoxifen, Mean ± SD ([2]; 1 mg/day, Second cycle Day 26, 36 hr after last application): 0.0134 ± 0.0075 ng/mL
Plasma concentration of 4-hydroxy tamoxifen, Mean ± SD ([2]; 1 mg/day, Second cycle Day 27, 48 hr after last application): 0.0125 ± 0.006 ng/mL
Plasma concentration of 4-hydroxy tamoxifen, Mean ± SD ([2]; 1 mg/day, Second cycle Day 28, 72 hr after last application): 0.0099 ± 0.0058 ng/mL
T(1stC < LOQ), first timepoint at which the plasma concentration was below the limit of quantification, Mean ± SD ([2]; 1 mg/day, after last administration): 274 ± 141 h
Plasma concentration of 4-hydroxy tamoxifen, Mean ± SD ([2]; 1 mg/day, after the second cycle, +5 days): 0.0058 ± 0.0052 ng/mL
Plasma concentration of 4-hydroxy tamoxifen ([2]; 1 mg/day, after the second cycle, +20 days, LOQ <5 pg/mL): <LOQ
AUC0-24, Mean ± SD ([2]; 1 mg/day): 0.3009 ± 0.1908 ng·h/mL
Cav = AUC0-24/24, Mean ± SD ([2]; 1 mg/day): 0.0125 ± 0.0079 ng/mL
Cmax, Mean ± SD ([2]; 1 mg/day): 0.021 ± 0.004 ng/mL
tmax, Mean ± SD ([2]; 1 mg/day): 24 ± 18 h
